The source of these data is article PMC10535824, “Tryptophan Substitution in CJ-15,208 (cyclo[Phe-D-Pro-Phe-Trp]) Introduces δ-Opioid Receptor Antagonism, Preventing Antinociceptive Tolerance and Stress-Induced Reinstatement of Extinguished Cocaine-Conditioned Place Preference” (Pharmaceuticals, 2023).

Like-named read-outs stand apart in the source and are kept apart here. Square brackets hold non-standard residues; d marks the D form. Peptide text beside a SMILES is read from it. 1Nal = N[C@@H](Cc1cccc2ccccc12)C(=O)O; 2Nal = N[C@@H](Cc1ccc2ccccc2c1)C(=O)O; d1Nal = N[C@H](Cc1cccc2ccccc12)C(=O)O; d2Nal = N[C@H](Cc1ccc2ccccc2c1)C(=O)O; Bta = N[C@@H](Cc1csc2ccccc12)C(=O)O; dBta = N[C@H](Cc1csc2ccccc12)C(=O)O

Data set [1] addresses T1, rat KOR (Rattus norvegicus, UniProt P34975).
T1 construct: expressed in transfected cells
Briefly: radioligand equilibrium competition binding, KOR. Particulars: CHO cell membranes, [3H]diprenorphine; mean ± SEM, at least three experiments. The procedure: (§1) Opioid receptor affinities were determined by equilibrium radioligand binding assays as previously described with membranes from Chinese hamster ovary (CHO) cells stably expressing rat KOR, rat MOR, or mouse DOR using the radioligands [^3H]diprenorphine, [^3H][D-Ala^2,N-MePhe^4,glyol]enkephalin (DAMGO), and [^3H][D-Pen^2,D-Pen^5]enkephalin (DPDPE), respectively. Following determination of IC50 values by nonlinear regression using Prism software (GraphPad Software Co., La Jolla, CA, USA), Ki values were calculated using the Cheng–Prusoff equation [57]. The results are presented as the mean ± SEM from at least three separate experiments, each performed in triplicate.

Data set [2] has as its system C57BL/6J mice. As to the kind of experiment: 55 °C warm-water tail-withdrawal assay, antinociception after i.c.v. administration. The data set is classed as in vivo, mouse. Also noted: key: ~: Maximum antinociception not achieved, precluding calculation of an ED50 value. How it is done: For intracerebroventricular administration, the macrocyclic peptides were dissolved in dimethyl sulfoxide (DMSO), followed by addition of sterile saline (0.9%) so that the final vehicle was 50% DMSO and 50% saline, and the i.c.v. injections were performed as described previously. This concentration of DMSO was not observed to have antinociceptive or behavioral effects in previous use. All solutions for animal administration were prepared fresh daily.
The 55 °C warm-water tail-withdrawal assay was performed in mice as previously described, with the latency of the mouse to withdraw its tail from the water taken as the endpoint (a cut-off time of 15 s was used in this assay). Antinociception was calculated according to the following formula: % antinociception = 100 × (test latency − control latency)/(15 − control latency). Tail-withdrawal data points are the means of 8–16 mice, unless otherwise indicated, with SEM shown by error bars.
All dose–response lines were analyzed by regression, and ED50 (effective dose producing 50% antinociception) values and 95% C.I. were determined using individual data points from graded dose–-response curves with Prism 8.0 software (GraphPad, La Jolla, CA, USA). Percent antinociception was used to determine within-group effects and to allow comparison to baseline latency in tail-withdrawal experiments. The statistical significance of differences between ED50 values was determined by evaluation of the ED50 value shift via nonlinear regression modeling with Prism software. Significant differences in behavioral data were analyzed by ANOVA (one-way or two-way with repeated measures (RM), as appropriate). Significant results were further analyzed with Sidak’s, Tukey’s, or Dunnett’s multiple comparison post hoc tests, as appropriate. Data for conditioned place preference experiments were analyzed by one-way or two-way RM ANOVA, with analyses examining the main effect of conditioned place preference phase (e.g., pre- or post-conditioning) and the interaction of drug pretreatment and/or exposure. All data are presented as mean ± SEM, with significance set at p < 0.05.

Data set [3] addresses T2, mouse DOR (Mus musculus, UniProt P32300).
T2 construct: expressed in transfected cells
Briefly: radioligand equilibrium competition binding, DOR. The settings on record: CHO cell membranes, [3H]DPDPE; mean ± SEM, at least three experiments (D-Nal(1′)^4 n = 2). The procedure:
as §1

A short description of data set [4]: metabolism by mouse liver microsomes. The data set is classed as in vitro ADME. The settings on record: read-out: t1/2 in mouse liver microsomes. The procedure:
The metabolism of the macrocyclic tetrapeptides by mouse liver microsomes was evaluated as previously described, with the amount of peptide remaining determined by LC-MS/MS [55] using [D-MeAla^2]CJ-15,208 [53] as the internal standard.

For data set [5], the target named is T3, rat MOR (Rattus norvegicus, UniProt P33535).
T3 construct: expressed in transfected cells
As to the kind of experiment: radioligand equilibrium competition binding, MOR. Particulars: CHO cell membranes, [3H]DAMGO; mean ± SEM, at least three experiments. The procedure: as §1

For data set [6], the system named is C57BL/6J mice. As to the kind of experiment: spontaneous locomotor activity (ambulation), CLAMS/Oxymax. The data set is classed as in vivo, mouse. Particulars: i.c.v.; [Nal(2′)^4]CJ-15,208 100 nmol, morphine 30 nmol; 80 min. The procedure:
(§2) Respiration rates (in breaths per minute) and animal locomotive activity (as ambulation) were assessed using the Oxymax/CLAMS system (Columbus Instruments, Columbus, OH, USA) as described previously. Mice were habituated to their individual sealed housing chambers for 60 min before testing. […] Pressure monitoring within the sealed chambers measured frequency of respiration. Infrared beams located in the floor measured locomotion as number of beam breaks. Respiration and locomotive data were averaged over 20 min periods for 80 min post-injection of the test compound. Data are presented as % vehicle response ± SEM; ambulation, or breaths per minute.

The subject of data set [7] is C57BL/6J mice. As to the kind of experiment: acute antinociceptive tolerance (dosing at 0 and 8 h). Particulars: i.c.v.; for Naïve ED50 (95% C.I.): naïve mice. The procedure:
The degree of tolerance was calculated from the shift in ED50 value from the singly to repeatedly treated condition.

For data set [8], the system named is C57BL/6J mice. The settings on record: mouse, in vivo.
In data set [9] the test system is C57BL/6J mice. Briefly: respiration rate, CLAMS/Oxymax. The class given is in vivo, mouse. Particulars: i.c.v.; [Nal(2′)^4]CJ-15,208 100 nmol, morphine 30 nmol; 80 min. The procedure: as §2
The target of data set [10] is T4, KOR (Mus musculus, UniProt P33534).
T4 construct: endogenous in cells; host or cells: living adult male C57BL/6J mice
As to the kind of experiment: antagonism of U50,488 antinociception, tail-withdrawal assay. The data set is classed as in vivo. Particulars: peptide i.c.v. (3-300 nmol, Figure 4) 140 min before U50,488 10 mg/kg i.p. The procedure: ; at this time, the antinociceptive activity of the analogs had dissipated. Antinociception produced by the established opioid agonists was then measured 40 min after their administration. The dose response of KOR or DOR antagonism produced by selected analogs was further determined by evaluating antinociception after administration of one of three additional i.c.v. doses of the analog.

Data set [11] has as its target T2, mouse DOR. The settings on record: parent peptides; mean ± SEM; cited from earlier work.
Data set [12] addresses T1, rat KOR. The settings on record: parent peptides; mean ± SEM; cited from earlier work.
Data set [13] addresses T3, rat MOR. Particulars: parent peptides; mean ± SEM; cited from earlier work.
In data set [14] the test system is MOR, KOR, DOR. Briefly: opioid receptor involvement in antinociception (KO mice / selective antagonist pretreatment), tail-withdrawal assay. The class given is in vivo, mouse. The settings on record: dose producing maximum antinociception, i.c.v., KOR KO mice or β-FNA, nor-BNI, naltrindole pretreatment. The procedure: Except for the Bta^4 analog, contributions of the MOR and KOR were assessed in knockout (KO) mice for those receptors; DOR contribution to the antinociceptive activity of the analogs was assessed by pretreating mice with naltrindole (20 mg/kg, i.p., −20 min) prior to administration of analog (Figure 3).
Assessment of DOR involvement in the agonist activity of each macrocyclic peptide was performed by pretreating additional wild-type mice with a single dose of naltrindole (20 mg/kg, i.p.) 20 min in advance of administration of the macrocyclic peptide.

[15] abbreviates: antinociception at peak response.
Where [16] appears, read: acute tolerance, dosing at 0 and 8 h.

As to `O=C1N[C@@H](Cc2ccccc2)C(=O)N2CCC[C@@H]2C(=O)N[C@@H](Cc2ccccc2)C(=O)N[C@H]1Cc1csc2ccccc12` [Bta^4, [Bta^4]CJ-15,208] (cyclo(F[dP]F[Bta])), the Ki was determined as 51.9 ± 4.8 nM in data set [1], 1600 ± 360 nM in data set [3] and 90.3 ± 38.5 nM in [5]. For the same molecule, the “ED50 (and 95% C.I.) i.c.v.” value in data set [2] (setting [15]) is recorded as 13.2 (9.62–18.2) nmol. In addition, the half-life in data set [4] worked out at 28 min.

`O=C1N[C@H](Cc2csc3ccccc23)C(=O)N[C@@H](Cc2ccccc2)C(=O)N2CCC[C@@H]2C(=O)N[C@H]1Cc1ccccc1` [D-Bta^4, [D-Bta^4]CJ-15,208] (cyclo(F[dP]F[dBta])): the inhibitory constant (Ki) was 4.29 ± 0.38 nM in data set [1], greater than 10000 nM in data set [3] and 84.2 ± 11.8 nM in data set [5].

For the molecule `O=C1N[C@H](Cc2cccc3ccccc23)C(=O)N[C@@H](Cc2ccccc2)C(=O)N2CCC[C@@H]2C(=O)N[C@H]1Cc1ccccc1` [D-Nal(1′)^4, [D-Nal(1′)^4]CJ-15,208] (cyclo(F[dP]F[d1Nal])), the Ki in data set [1] is 21.4 ± 0.7 nM; in data set [3], greater than 10000 nM; in [5], 101 ± 25 nM.

In the case of `O=C1N[C@H](Cc2ccc3ccccc3c2)C(=O)N[C@@H](Cc2ccccc2)C(=O)N2CCC[C@@H]2C(=O)N[C@H]1Cc1ccccc1` [D-Nal(2′)^4, [D-Nal(2′)^4]CJ-15,208] (cyclo(F[dP]F[d2Nal])), the Ki was 12.3 ± 1.8 nM in [1], greater than 10000 nM in [3] and 63.8 ± 5 nM in data set [5]. Also, the “ED50 (and 95% C.I.) i.c.v.” value in data set [2] (setting [15]) is on record as 31.2 (22.5–41.9) nmol.

As for `CN1CC[C@]23c4c5ccc(O)c4O[C@H]2[C@@H](O)C=C[C@H]3[C@H]1C5` [Morphine, reference compound], the “effect on ambulation vs. vehicle” value in [6] is on record as “significantly increased ambulation”. In addition, the “ED50 (and 95% C.I.) i.c.v.” value in data set [2] (setting [15]) was 2.35 (1.13–5.03) nmol. The “Naïve ED50 (95% C.I.)” value in data set [7] is reported as 2.35 (1.13–5.03) nmol. Also, the “conditioned place preference or aversion” value in data set [8] (C57BL/6J) was “significant (p = 0.03) place preference”. The “effect on respiration rate vs. vehicle” value in data set [9] is “produced significant, time-dependent respiratory depression”.

Regarding `O=C1N[C@@H](Cc2ccccc2)C(=O)N2CCC[C@@H]2C(=O)N[C@@H](Cc2ccccc2)C(=O)N[C@H]1Cc1cccc2ccccc12` [Nal(1′)^4, [Nal(1′)^4]CJ-15,208] (cyclo(F[dP]F[1Nal])), the values for the Ki in data set [1], in [3] and in data set [5] were 103 ± 6 nM, 1920 ± 120 nM and 110 ± 16 nM, respectively. The “ED50 (and 95% C.I.) i.c.v.” value in data set [2] (setting [15]) is on record as 0.24 (0.19–0.31) nmol.

On to `O=C1N[C@@H](Cc2ccccc2)C(=O)N2CCC[C@@H]2C(=O)N[C@@H](Cc2ccccc2)C(=O)N[C@H]1Cc1ccc2ccccc2c1` [Nal(2′)^4, [Nal(2′)^4]CJ-15,208] (cyclo(F[dP]F[2Nal])), for which the “effect on ambulation vs. vehicle” value in [6] is “not significant”. Moreover, the Ki in data set [1] worked out at 358 ± 137 nM; in data set [3], 3300 ± 360 nM; in data set [5], 583 ± 59 nM. Moreover, in data set [2] (setting [15]), the “ED50 (and 95% C.I.) i.c.v.” value is 19.5 (15.8–24.0) nmol. Further, the “Fold-Shift, Naïve ED50 vs. Second ED50” value in [7] (setting [16]) came to 0.37. Moreover, in data set [7] (setting [16]), the “leftward shift in the dose–response curve of the second dose” value is given as 2.7 fold. Moreover, the “Naïve ED50 (95% C.I.)” value in data set [7] is 19.5 (15.8–24.0) nmol. Also, the half-life in data set [4] is greater than 60 min. Further, the “conditioned place preference or aversion” value in [8] is “no significant preference or aversion”. Further, the “effect on respiration rate vs. vehicle” value in data set [9] is “did not significantly impair breathing”.

cyclo(F[dP]FW) [CJ-15,208]: in data set [10], the “antagonism of U50,488 antinociception (KOR antagonism)” value is reported as “displayed significant KOR antagonism”. For the same molecule, in [2] (setting [15]), the “ED50 (and 95% C.I.) i.c.v.” value is reported as 1.74 (0.62–4.82) nmol. Besides, the Ki is 1720 ± 350 nM in data set [11], 27.4 ± 4.6 nM in data set [12] and 451 ± 114 nM in data set [13]. In [14], the “Receptors Involved in antinociception” value is “KOR, MOR”.

Turning to cyclo(F[dP]F[dW]) [[D-Trp]CJ-15,208], the “antagonism of U50,488 antinociception (KOR antagonism)” value in data set [10] is listed as “significantly antagonized U50,488-induced antinociception”. Besides, the “ED50 (and 95% C.I.) i.c.v.” value in data set [2] (symbol where no ED50 could be calculated) is listed as “~”. Further, the Ki in [11] is 4190 ± 860 nM; in data set [12], 21.8 ± 4.8 nM; in data set [13], 259 ± 29 nM.
